What was measured:
[1] = system: HCC1187 triple negative breast cancer (TNBC) xenograft model; assay: CIVO microinjection, MCL-1 and CC3 staining; type: in vivo, mice; conditions: for expression of MCL-1: drug screen; for CC3 expression: marker of apoptosis
Experimental: (§1) Mice were enrolled into CIVO drug studies when the tumor volume reached approximately 1000 mm^3. Microinjection studies were performed using the CIVO device as previously described (Klinghoffer et al, Science Translational Medicine 2015) The device was configured with 6 injection needles set for a 6 mm injection length and a total volume delivery of 3 μl. A fluorescent tracking marker (FTM) was added to each drug reservoir in vehicle for delivery along with each drug or drug combination. All micro-doses were equivalent to or lower than what would be allowed under FDA guidelines for Exploratory IND (Investigational New Drug) studies and by solubility of drug into vehicle. Total amounts of agents injected are tabulated below in Table 4.
A drug screen was performed to test multiple drugs simultaneously.
FIG. 11 depicts a similar experiment performed on the HCC1187 triple negative breast cancer (TNBC) xenograft model. […] Cells were then stained for CC3 expression (shown in red) as a marker of apoptosis.
FIGS. 20A-20D depicts the HCC1187 triple negative breast cancer (TNBC) xenograft model. Briefly, cells were treated with vehicle, voruciclib alone, ixazomib alone, or voruciclib and ixazomib in combination. Cells were then stained for CC3 expression (shown in red) as a marker of apoptosis.

NudHL1 DLBCL xenografts = assay: CIVO microinjection, CC3 staining after 6 hours; type: in vivo, mice; conditions: treated for 6 hours
Experimental: as §1, with “All micro-doses were equivalent to or lower than what would be allowed under FDA guidelines for Exploratory IND (Investigational New Drug) studies and by solubility of drug into vehicle.” left out
FIGS. 9A-9D depict cells that were treated as above and stained for cleaved caspase-3 (CC3) as a marker of apoptosis (shown in red).
FIGS. 10A-10D depict cells that were treated as above and stained for cleaved caspase-3 (CC3) as a marker of apoptosis (shown in red).

[2] = system: HCC1187 triple negative breast cancer cells; assay: Western blot of treated cells; type: cell-based; conditions: for XBP1 expression: at 24 hours
Experimental: Cell lines shown in Table 1, adherent or suspension, were treated in 6-well dishes or T10 flasks respectively, seeded at one million per ml density prior to treatment in total volumes of 3-10 ml. All agents used for in vitro cell treatments were formulated in water/DMSO to achieve required concentrations (as stated in respective figure labels/legends) with DMSO concentrations not exceeding 0.01%. Drug sources are indicated in table under ‘CIVO microinjection studies’. Cells were harvested at experimental time points: 2, 6, or 24 hours post treatment as indicated in respective figures, first by washing cells twice in ice-cold PBS in 15 ml falcon tubes, centrifugation at 1000 rpm for 5 mins followed by lysis of the respective cell pellets as described in section below. Note: Drug resistant NUDHL1 Dox 1000 nM and Toledo Dox 1000 nM cell lines were generated at Presage by culturing parental lines in media with stepwise increments in Doxorubicin concentration over several passages. These cells were used to generate xenografts when resistance to 1 uM Dox was achieved.
Protein lysates were prepared by adding ice-cold 1×RIPA Buffer (from 10×, Millipore) with 1×-3× Halt protease and phosphatase inhibitor cocktail (100×, Pierce) to cell pellets, followed by pulse sonication (˜3-5 secs) three times. Lysates were cleared by centrifugation at 14K rpm for 15-20 mins and the supernatant (lysate) was collected for further analysis. To prepare lysates from cryopreserved xenograft tumor tissue, tissue was first homogenized using a hand-held tissue homogenizer (Cole Palmer) in above lysis buffer followed by pulse sonication and centrifugation as described above. Above steps were carried out under ice cold conditions. […] 20-25 micrograms of protein from each sample were subject to SDS-PAGE using BOLT 4-12% Bis-Tris gels (Thermofisher) and transferred to either 0.45 or 0.2 micron pore size membranes (as applicable based on protein molecular size), and either nitrocellulose (NC) or pvdf (Thermofisher) using manufacturer's protocol, blocked for one hour in 5% milk at room temperature, probed with primary antibodies (Table 2) at 4 deg C. overnight and corresponding HRP-conjugated secondary antibodies (Jackson Immunoresearch, 1:10,000-1:20,000 dilutions) for 1 hour at room temperature. Three PBS/0.01% Tween-20 washes (5-10 mins each) were carried out after each antibody incubation. ECL chemiluminescent substrate (Pierce or GE) and autoradiographic film (Thermofisher) was used for detection of protein signals.
1 ug of mRNA from each condition was used to generate cDNA using the High Capacity cDNA Reverse Transcription Kit (Applied Biosystems) and manufacturer's protocol. 100 ng cDNA was used to conduct a PCR assay to amplify XBP1 u or splice forms (Thermofisher PCR Supermix)—94 deg C. for 2 mins, (94 deg C. for 15 secs, 55 deg C. for 30 secs, 72 deg C. for 1 min)×30 cycles, 72 deg C. for 7 mins, hold at 4 deg C.

tissue section = assay: Tissue section treated with bortezomib; type: in vivo; conditions: some cells appear resistant
[3] = Body weight in HCC1187 TNBC mouse model; conditions: in vivo
Experimental: Mice were enrolled for study when tumors reached an average volume of 150-200 mm^3. Tumor volume was calculated as V=length×width×height, all three dimensions measured using digital calipers along with body weight. Animals were removed from the study when—any one of the three measured dimensions of the tumor exceeding 2 cm, volume exceeding 2500 mm^3, ulceration or body weight loss greater than 20%.

ICK = ICK (Homo sapiens, UniProt Q9UPZ9); assay: Kinase inhibition profile; type: biochemical
MAK = MAK (Homo sapiens, UniProt P20794); assay: Kinase inhibition profile
tumor cells = assay: Solid tumor section, CDK inhibitors in combination with ixazomib; parameters: species or system mice; conditions: mouse, in vivo
Experimental: as §1

ICK, sequence (Q9UPZ9 whole entry): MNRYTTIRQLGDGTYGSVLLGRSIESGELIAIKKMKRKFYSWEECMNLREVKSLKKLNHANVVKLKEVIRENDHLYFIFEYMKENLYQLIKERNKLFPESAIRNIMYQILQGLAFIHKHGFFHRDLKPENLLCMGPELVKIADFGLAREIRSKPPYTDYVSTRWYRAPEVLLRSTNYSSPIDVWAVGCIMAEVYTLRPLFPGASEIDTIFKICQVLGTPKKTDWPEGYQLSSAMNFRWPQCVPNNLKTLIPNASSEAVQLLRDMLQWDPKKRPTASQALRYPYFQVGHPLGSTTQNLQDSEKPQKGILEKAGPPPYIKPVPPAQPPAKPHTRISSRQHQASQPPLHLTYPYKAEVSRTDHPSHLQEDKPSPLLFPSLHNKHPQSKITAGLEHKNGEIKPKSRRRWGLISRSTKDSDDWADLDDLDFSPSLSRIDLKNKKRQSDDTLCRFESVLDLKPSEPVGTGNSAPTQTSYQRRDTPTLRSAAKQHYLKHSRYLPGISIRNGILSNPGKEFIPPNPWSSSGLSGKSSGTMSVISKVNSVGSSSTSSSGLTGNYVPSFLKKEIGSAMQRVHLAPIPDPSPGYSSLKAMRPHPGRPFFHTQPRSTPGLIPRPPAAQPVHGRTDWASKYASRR
MAK, sequence (P20794 whole entry): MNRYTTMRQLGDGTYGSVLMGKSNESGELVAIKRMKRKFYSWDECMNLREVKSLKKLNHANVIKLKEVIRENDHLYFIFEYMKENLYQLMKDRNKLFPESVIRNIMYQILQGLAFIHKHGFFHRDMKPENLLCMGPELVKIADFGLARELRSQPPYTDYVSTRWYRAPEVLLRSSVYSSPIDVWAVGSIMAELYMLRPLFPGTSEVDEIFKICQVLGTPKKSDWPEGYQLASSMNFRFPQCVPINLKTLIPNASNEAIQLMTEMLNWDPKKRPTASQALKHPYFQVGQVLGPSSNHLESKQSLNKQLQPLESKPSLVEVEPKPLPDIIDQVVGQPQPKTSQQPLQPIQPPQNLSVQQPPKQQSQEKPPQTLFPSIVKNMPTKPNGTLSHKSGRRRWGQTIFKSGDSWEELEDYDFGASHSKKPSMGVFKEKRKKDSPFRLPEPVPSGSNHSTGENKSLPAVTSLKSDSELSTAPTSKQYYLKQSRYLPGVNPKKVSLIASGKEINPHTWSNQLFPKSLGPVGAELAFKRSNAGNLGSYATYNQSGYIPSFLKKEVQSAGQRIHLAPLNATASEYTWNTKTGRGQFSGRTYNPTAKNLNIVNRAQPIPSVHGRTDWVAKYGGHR

Compound: CC(C)C[C@H](NC(=O)[C@H](Cc1ccccc1)NC(=O)c1cnccn1)B(O)O [bortezomib]
- expression of MCL-1 [1]: increase
- expression of MCL-1 ([1]; listed as Bortezomib): markedly increased
- CC3 expression [1]: little to no increase
- CC3 expression (NudHL1 DLBCL xenografts): little to no increase
- MCL-1 protein expression ([2]; Western blot, compared to untreated sample): increased
- XBP1 expression [2]: strongly induced
- apoptosis (tissue section): induces apoptosis in some cells
- body weight of mice [3]: unaffected

Compound: CN1CC[C@H](c2c(O)cc(O)c3c(=O)cc(-c4ccccc4Cl)oc23)[C@H](O)C1 [flavopiradol, reference compound]
- inhibition of ICK (ICK): potent inhibitor
- inhibition of MAK (MAK): potent inhibitor

Compound: CC(C)C[C@H](NC(=O)CNC(=O)c1cc(Cl)ccc1Cl)B(O)O [ixazomib]
- CC3 expression [1]: little to no increase
- synergistic effect on apoptosis of tumor cells (tumor cells): did not exhibit the synergistic effect

Compound: C[C@@]12OC(=O)[C@]1([C@@H](O)[C@@H]1C=CCCC1)NC(=O)[C@@H]2CCCl [marizomib]
- CC3 expression (NudHL1 DLBCL xenografts): little to no increase

Compound: tunicamycin [reference compound]
- X-box binding protein 1 (XBP1) expression ([2]; at 6 hours): strongly induced
- XBP1 expression [2]: strongly induced
